Structures can show the parent of a compound that is named as a salt.
System: experimental autoimmune encephalomyelitis (EAE)
Test: Experimental autoimmune encephalomyelitis (EAE) animal model
Assay type: in vivo, C57BL/6 mice
Settings: dosed at 60 mg/kg beginning on the day of immunization

For COC(=O)/C=C/n1nn[nH]c1=O [methyl (E)-3-(5-oxo-4,5-dihydro-1H-tetrazol-1-yl)acrylate], the “onset of disease paralysis” value was “significantly prevents”.

System: not listed separately
Test: Glutathione depletion assay (Michael reaction with reduced glutathione followed by 1H NMR)
Settings: 2 equiv. reduced glutathione, d6-DMSO, 35° C.
From the text: See, for example, Lehmann et al. Dimethyfumarate Induces Immunosuppression via Glutathione Depletion and Subsequent Induction of Heme Oxygenase 1, Journal of Investigative Dermatology (2007) 127, 835-845. Accordingly, the present compounds may be assessed in vitro by reaction with glutathione as follows:
(with the top securely fastened).
In all the above cases, dis-appearance of the alkene proton signals from the starting material are used to determine the extent of Michael reaction with glutathione.
As would be understood by those of skill in the art, the above experiments can be repeated by varying the equivalents of reduced glutathione (0.5 to 2 equivalents); the reactions can also be run in a mixture of d6-DMSO and D2O; and the temperature of the reaction can also be varied from room temperature to 35° C. (35° C. being used to mimic body temperature). As used herein “majority reaction” means a greater than 50% reduction in alkene proton signal as observed by ^1H NMR.

For COC(=O)/C=C/n1nnn(C)c1=O [methyl (E)-3-(4-methyl-5-oxo-4,5-dihydro-1H-tetrazol-1-yl)acrylate], the “time to majority reaction with glutathione (greater than 50% reduction in alkene proton signal by 1H NMR)” value was no more than 30 h.
In the case of COC(=O)/C=C/n1nn[nH]c1=O [methyl (E)-3-(5-oxo-4,5-dihydro-1H-tetrazol-1-yl)acrylate], the “time to majority reaction with glutathione (greater than 50% reduction in alkene proton signal by 1H NMR)” value is reported as no more than 30 h.

System: NrF2 (Nuclear factor (erythroid-derived 2)-like 2)
Test: NrF2 activation in a whole cell nuclear translocation assay
Assay type: cell-based
Settings: read-out: NrF2 translocation assay EC50; whole cell nuclear translocation; Table 2
Protocol: NrF2 Activation in a Whole Cell Nuclear Translocation Assay
Compounds were tested in a NrF2 (Nuclear factor (erythroid-derived 2)-like 2) translocation assay by adapting the methods set forth in U.S. Pat. No. 8,101,373, the disclosure of which is incorporated herein by reference.

In order of falling EC50:
1. CS(=O)(=O)/C=C/C(=O)O [Compound 15, (E)-3-(methylsulfonyl)acrylic Acid]  44800 nM
2. CS(=O)(=O)/C=C/n1nnn(-c2cccnc2)c1=O [Compound 3, (E)-1-(2-(methylsulfonyl)vinyl)-4-(pyridin-3-yl)-1,4-dihydro-5H-tetrazol-5-one]  120 nM

Same assay, conditions: reference fumarates; read-out: NrF2 activation EC50

In order of falling EC50:
1. COC(=O)/C=C/C(=O)O [Monomethyl fumarate, reference compound]  ~127000 nM
2. COC(=O)/C=C/C(=O)OC [dimethyl fumarate, reference compound]  ~7900 nM

Same assay, conditions: whole cell nuclear translocation; Table 2; read-out: NrF2 translocation assay EC50

Going from Cc1ccc(S(=O)(=O)/C=C/n2nnn(-c3cccnc3)c2=O)cc1 [Compound 1, (E)-1-(pyridin-3-yl)-4-(2-tosylvinyl)-1,4-dihydro-5H-tetrazol-5-one] to O=c1n(/C=C/S(=O)(=O)c2ccc(F)cc2)nnn1-c1cccnc1 [Compound 19, (E)-1-(2-((4-fluorophenyl)sulfonyl)vinyl)-4-(pyridin-3-yl)-1,4-dihydro-5H-tetrazol-5-one], the EC50 falls from 290 nM to 30 nM (9.7-fold). The second is the more potent here.

COC(=O)/C=C/S(=O)(=O)c1ccc(NC(C)=O)cc1 [Compound 4] and COC(=O)/C=C\S(=O)(=O)c1ccc(F)cc1 [Compound 6] are within 1.5-fold of each other in EC50: 750 nM for the first, 790 nM for the second.

Going from COC(=O)/C=C/S(C)(=O)=O [Compound 5] to COC(=O)/C=C/S(=O)(=O)c1ccc(Br)cc1 [Compound 8], the EC50 falls from 1000 nM to less than 390 nM.

CCOC(=O)/C=C/S(=O)(=O)c1ccccc1 [Compound 7] and COC(=O)/C=C/S(=O)(=O)c1ccc2ccccc2c1 [Compound 9] cannot be ordered by EC50: less than 390 nM for the first, less than 390 nM for the second.

CCn1nnn(/C=C/S(=O)(=O)c2ccc(C)cc2)c1=O [Compound 16, (E)-1-ethyl-4-(2-tosylvinyl)-1,4-dihydro-5H-tetrazol-5-one] and Cc1ccc(S(=O)(=O)/C=C/n2nnn(Cc3ccccc3)c2=O)cc1 [Compound 17, (E)-1-benzyl-4-(2-tosylvinyl)-1,4-dihydro-5H-tetrazol-5-one] are within 1.5-fold of each other in EC50: 190 nM for the first, 170 nM for the second.

In the case of Cn1nnn(/C=C/S(=O)(=O)c2ccc(F)cc2)c1=O [Compound 18, (E)-1-(2-((4-fluorophenyl)sulfonyl)vinyl)-4-methyl-1,4-dihydro-5H-tetrazol-5-one], the EC50 is reported as 200 nM.

— US11279686B2, “Nrf2 activating compounds and uses thereof” (Rigel Pharmaceuticals, Inc., priority 2016, dated 2022)
